Patent US9770445B2, “Sulfoximine substituted 5-fluoro-N-(pyridin-2-yl)pyridin-2-amine derivatives and their use as CDK9 kinase inhibitors” (BAYER PHARMA AKTIENGESELLSCHAFT, priority 2013, dated 2017)

Legend:
[1] = test system: B16F10, mouse melanoma cells; assay: Proliferation assay, B16F10 (crystal violet); type: cell-based; conditions: B16-F10, 96 h, B16F10, 4 days, read-out: Inhibition of B16F10 cell proliferation
Description: (§1) Cultivated tumour cells (HeLa, human cervical tumour cells, ATCC CCL-2; NCI-H460, human non-small cell lung carcinoma cells, ATCC HTB-177; A2780, human ovarian carcinoma cells, ECACC #93112519; DU 145, hormone-independent human prostate carcinoma cells, ATCC HTB-81; HeLa-MaTu-ADR, multidrug-resistant human cervical carcinoma cells, EPO-GmbH Berlin; Caco-2, human colorectal carcinoma cells, ATCC HTB-37; B16F10, mouse melanoma cells, ATCC CRL-6475) were plated at a density of 5,000 cells/well (DU145, HeLa-MaTu-ADR), 3,000 cells/well (NCI-H460, HeLa), 2,500 cells/well (A2780), 1,500 cells/well (Caco-2), or 1,000 cells/well (B16F10) in a 96-well multititer plate in 200 μL of their respective growth medium supplemented 10% fetal calf serum. After 24 hours, the cells of one plate (zero-point plate) were stained with crystal violet (see below), while the medium of the other plates was replaced by fresh culture medium (200 μl), to which the test substances were added in various concentrations (0 μM, as well as in the range of 0.001-10 μM; the final concentration of the solvent dimethyl sulfoxide was 0.5%). The cells were incubated for 4 days in the presence of test substances. Cell proliferation was determined by staining the cells with crystal violet: the cells were fixed by adding 20 μl/measuring point of an 11% glutaric aldehyde solution for 15 minutes at room temperature. After three washing cycles of the fixed cells with water, the plates were dried at room temperature. The cells were stained by adding 100 μl/measuring point of a 0.1% crystal violet solution (pH 3.0). After three washing cycles of the stained cells with water, the plates were dried at room temperature. The dye was dissolved by adding 100 μl/measuring point of a 10% acetic acid solution. The extinction was determined by photometry at a wavelength of 595 nm. The change of cell number, in percent, was calculated by normalization of the measured values to the extinction values of the zero-point plate (=0%) and the extinction of the untreated (0 μm) cells (=100%). The IC50 values (inhibitory concentration at 50% of maximal effect) were determined by means of a 4 parameter fit.

[2] = test system: DU 145, hormone-independent human prostate carcinoma cells; assay: Proliferation assay, DU145 (crystal violet); type: cell-based; conditions: DU-145, 96 h, DU145, 4 days, read-out: Inhibition of DU145 cell proliferation
Description: as §1

[3] = test system: HeLa, human cervical tumour cells; assay: Proliferation assay, HeLa (crystal violet); type: cell-based; conditions: 96 h, 4 days, read-out: Inhibition of HeLa cell proliferation
Description: as §1

[4] = molecular target: T1, CDK9/CycT1 (Homo sapiens, UniProt P50750); assay: CDK9/CycT1 high ATP kinase assay (Method 1b, TR-FRET); type: biochemical; conditions: 2 mM ATP
T1 construct: Recombinant full-length His-tagged human CDK9 and CycT1; His; purchased Invitrogen PV4131; host or cells: insect cells
Description: 1b. CDK9/CyeT1 High ATP Kinase Assay
CDK9/CycT1-inhibitory activity of compounds of the present invention at a high ATP concentration after preincubation of enzyme and test compounds was quantified employing the CDK9/CycT1 TR-FRET assay as described in the following paragraphs.
Recombinant full-length His-tagged human CDK9 and CycT1, expressed in insect cells and purified by Ni-NTA affinity chromatography, were purchase from Invitrogen (Cat. No PV4131). As substrate for the kinase reaction biotinylated peptide biotin-Ttds-YISPLKSPYKISEG (C-terminus in amid form) was used which can be purchased e.g. form the company JERINI peptide technologies (Berlin, Germany). For the assay 50 nl of a 100 fold concentrated solution of the test compound in DMSO was pipetted into a black low volume 384 well microtiter plate (Greiner Bio-One, Frickenhausen, Germany), 2 μl of a solution of CDK9/CycT1 in aqueous assay buffer [50 mM Tris/HCl pH 8.0, 10 mM MgCl2, 1.0 mM dithiothreitol, 0.1 mM sodium ortho-vanadate, 0.01% (v/v) Nonidet-P40 (Sigma)] were added and the mixture was incubated for […] at 22° C. to allow pre-binding of the test compounds to the enzyme before the start of the kinase reaction. Then the kinase reaction was started by the addition of 3 μl of a solution of adenosine-tri-phosphate (ATP, 3.3 mM=>final conc. in the 5 μl assay volume is 2 mM) and substrate (1.67 μM=>final conc. in the 5 μl assay volume is 1 μM) in assay buffer and the resulting mixture was incubated for a reaction time of […] at 22° C. The concentration of CDK9/CycT1 was adjusted depending of the activity of the enzyme lot and was chosen appropriate to have the assay in the linear range, typical concentrations were in the range of 0.5 μg/mL The reaction was stopped by the addition of 5 μl of a solution of TR-FRET detection reagents (0.2 μM streptavidine-XL665 [Cisbio Bioassays, Codolet, France] and 1 nM anti-RB(pSer807/pSer811)-antibody from BD Pharmingen [#558389] and 1.2 nM LANCE EU-W1024 labeled anti-mouse IgG antibody [Perkin-Elmer, product no. AD0077]) in an aqueous EDTA-solution (100 mM EDTA, 0.2% (w/v) bovine serum albumin in 100 mM HEPES/NaOH pH 7.0).
The resulting mixture was incubated 1 h at 22° C. to allow the formation of complex between the phosphorylated biotinylated peptide and the detection reagents. Subsequently the amount of phosphorylated substrate was evaluated by measurement of the resonance energy transfer from the Eu-chelate to the streptavidine-XL. Therefore, the fluorescence emissions at 620 nm and 665 nm after excitation at 350 nm was measured in a HTRF reader, e.g. a Rubystar (BMG Labtechnologies, Offenburg, Germany) or a Viewlux (Perkin-Elmer). The ratio of the emissions at 665 nm and at […] was taken as the measure for the amount of phosphorylated substrate. The data were normalised (enzyme reaction without inhibitor=0% inhibition, all other assay components but no enzyme=100% inhibition).

[5] = test system: Caco-2, human colorectal carcinoma cells; assay: Proliferation assay, Caco-2 (crystal violet); type: cell-based; conditions: 96 h, Caco-2, 4 days, read-out: Inhibition of Caco-2 cell proliferation
Description: as §1

[6] = test system: HeLa-MaTu-ADR, multidrug-resistant human cervical carcinoma cells; assay: Proliferation assay, HeLa-MaTu-ADR (crystal violet); type: cell-based; conditions: 96 h, 4 days, read-out: Inhibition of HeLa-MaTu-ADR cell proliferation
Description: as §1

[7] = test system: NCI-H460, human non-small cell lung carcinoma cells; assay: Proliferation assay, NCI-H460 (crystal violet); type: cell-based; conditions: 96 h, NCI-H460, 4 days, read-out: Inhibition of NCI-H460 cell proliferation
Description: as §1

T1 sequence (P50750 whole entry): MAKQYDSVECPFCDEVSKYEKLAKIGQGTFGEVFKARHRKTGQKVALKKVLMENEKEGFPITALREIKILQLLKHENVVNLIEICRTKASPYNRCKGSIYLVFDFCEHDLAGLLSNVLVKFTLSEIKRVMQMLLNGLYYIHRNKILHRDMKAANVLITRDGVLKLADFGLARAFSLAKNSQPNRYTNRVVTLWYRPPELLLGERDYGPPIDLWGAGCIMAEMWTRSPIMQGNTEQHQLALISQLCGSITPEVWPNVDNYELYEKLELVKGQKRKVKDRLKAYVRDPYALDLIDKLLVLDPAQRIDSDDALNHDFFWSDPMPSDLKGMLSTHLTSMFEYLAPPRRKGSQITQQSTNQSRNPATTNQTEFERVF
T1 sequence (O60563 whole entry partner): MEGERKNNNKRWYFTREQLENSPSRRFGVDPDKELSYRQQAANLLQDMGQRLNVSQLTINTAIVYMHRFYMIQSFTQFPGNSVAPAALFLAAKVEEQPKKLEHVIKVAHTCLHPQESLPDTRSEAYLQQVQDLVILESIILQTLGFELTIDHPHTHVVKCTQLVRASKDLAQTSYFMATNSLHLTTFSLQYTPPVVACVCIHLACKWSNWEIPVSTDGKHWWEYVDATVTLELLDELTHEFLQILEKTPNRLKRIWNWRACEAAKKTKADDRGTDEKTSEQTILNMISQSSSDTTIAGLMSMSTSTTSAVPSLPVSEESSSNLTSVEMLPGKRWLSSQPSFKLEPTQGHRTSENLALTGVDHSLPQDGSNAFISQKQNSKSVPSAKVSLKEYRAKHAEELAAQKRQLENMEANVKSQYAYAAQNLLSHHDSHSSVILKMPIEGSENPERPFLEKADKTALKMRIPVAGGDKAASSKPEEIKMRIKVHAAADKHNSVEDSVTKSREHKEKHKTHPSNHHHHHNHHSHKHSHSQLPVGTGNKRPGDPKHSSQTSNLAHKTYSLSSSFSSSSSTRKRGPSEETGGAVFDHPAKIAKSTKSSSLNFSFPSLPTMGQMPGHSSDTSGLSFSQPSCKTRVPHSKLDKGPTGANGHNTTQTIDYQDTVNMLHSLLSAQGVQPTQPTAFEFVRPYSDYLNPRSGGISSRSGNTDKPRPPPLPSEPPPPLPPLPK

- IC50 [1]: 19 nM
- IC50 [2]: 15 nM
- IC50 [3]: 6 nM
- IC50 [4]: 2.7 nM
- IC50 [5]: 19 nM
- IC50 [6]: 11 nM
- IC50 [7]: 21 nM
Compound: CS(=N)(=O)Cc1cc(Nc2cc(-c3ccc(F)c4ccoc34)c(F)cn2)nc(C(F)(F)F)c1 (racemic) [Example 3, (rac)-5-Fluoro-4-(4-fluoro-1-benzofuran-7-yl)-N-{4-[(S-methylsulfonimidoyl)methyl]-6-(trifluoromethyl)pyridin-2-yl}pyridin-2-amine]
